In patent US20050119283A1, “Treatment of circadian rhythm disorders with NPY Y5 receptor antagonist” (Pfizer Inc, priority 2003, published 2005):
Values joined by “and” are separate entries in the source; they are usually repeats but may differ in a detail not shown here. Identical values can stand only once.

Assays:
[1] = tested on: hamster wheel running activity; test: Light-induced phase advances of hamster wheel running activity (in vivo); conditions: for Phase shift: mean ± S.E.M.
Description: The in vivo experimental design included recording a behavioral overt rhythm such as running-wheel activity and exposing the animals to an amount of light that is known to produce a phase advance in this pattern of activity. The term “running-wheel activity”, as used herein, is defined as physical activity measured as revolutions of a wheel permanently positioned in the animals' cages and rotated as the animals run in them. The onset of such behavior is a well regarded marker of timing in circadian rhythms. Application of NPY through a cannula aimed directly into the SCN blocks the ability of light to produce a phase advance; NPY Y5 antagonists of formula IIa block these effects of NPY. Furthermore, when given in the absence of NPY, NPY Y5 antagonists of formula IIa enhance the ability of light to produce phase advances.
Surgery. For in vivo treatment, hamsters (80-100 g) were deeply anesthetized with nembutal (80 mg/kg, i.p.), administered an analgesic (buprenorphine, 0.05 mg/kg, s.c.) and mounted in a stereotaxic instrument in order to rigidly fix the skull. They were surgically implanted with a 25 gauge stainless steel guide cannula aimed at the SCN. After a week of recovery under LD 14:10 (14 hours of light, 10 hours of dark), animals were individually transferred to cages (48×27×20 cm) equipped with wheels. Wheel running activity was recorded with ClockLab hardware and software (Actimetrics, Evanston, Ill.).
Drugs and routes of administration. Animals were briefly anesthetized in order to minimize the stress induced by restraint during cannula injections with a mixture of oxygen and isoflurane administered by means of a gas anesthesia machine (2.5% isoflurane to induce anesthesia, 1.5% to maintain anesthesia through a nose-mask). NPY (0.2 μL, 234 μM) was dissolved in ACSF and administered through a cannula with a 1 μL Hamilton syringe connected with polyethylene tubing to a 13.1 mm stainless steel injector cannula (30 gauge). NPY Y5 receptor antagonist (0.6 ml, 10 mg/kg) was dissolved in 32% 2-hydroxypropyl-B-cyclodextrin, and injected s.c. 30 minutes before NPY and/or light stimulation. Light pulses (5 min, 150 lux) were delivered individually by placing animals under two white fluorescent tubes (Phillips, model F30T12); the timing of the light pulses was selected to be in the animals' dark period, 3.5 hours before lights would normally come on.
Animals were allowed at least 10 days under LD (14 hours of light, 10 hours of dark) in order to establish a stable rhythm, and then housed under constant dim red light (DRL) provided by a safelight lamp (Coastar, Inc. <1 lux). Two sets of experiments comprising five treatments were delivered in a counterbalanced design: NPY alone, NPY+light; light alone, light+NPY Y5 antagonist, NPY+NPY Y5 antagonist+light. After two treatments (only one of them involving light stimulation), animals were resynchronized to the previous LD cycle for 7-10 days, and then exposed again to dim red light for the second set of treatments.
Data analysis. For in vivo experiments, data were automatically collected and analyzed with Clocklab software bundle (ActiMetrics Software, Evanston, Ill.). Two investigators blind to the treatment analyzed phase advance magnitudes. Statistical analyses were performed by means of ANOVA followed by Student-Newman-Keul's test.
Phase advances (h) were calculated as the difference in the onset of running behavior in animals kept in dim red light relative to those exposed to combination of light and/or drug treatments. Means±S.E.M. for N=7-12. • a. Light alone experiment in which the animals are exposed to light 3 hours before the scheduled beginning of the animals' period of normal light. There is a resulting phase advance of 1.33 hours. • b. Formula IIa+light experiment in which the animals are pretreated with NPY Y5 antagonist of formula IIa and then exposed to light 3 hours before the scheduled beginning of the animals' period of normal light. […]

[2] = tested on: neuronal firing in hamster SCN slices; test: NMDA-induced phase advances of neuronal firing in hamster SCN slices maintained in vitro; format: cell-based; conditions: for Phase shift: mean ± S.E.M.; for reversal of the effect of NPY on NMDA-induced phase advances, % of the NMDA alone experiment: antagonist 10 μM with NMDA 100 μM + NPY 2 ng/ml, in vitro
Method: Brain slices containing the SCN were taken on a nominally “preparatory day”. During the subsequent night, at 3-3.5 hours before the scheduled onset of light, drugs were administered to the bath. Neuronal recordings were made beginning early the next day, nominally the “experimental day”, and continued until the peak firing rate could be established. A shift in this peak to an earlier point in time is referred to as a “phase advance”.
Phase advances were measured in vitro by sampling spontaneous activity from neurons in a brain slice preparation of the suprachiasmatic nucleus, herein abbreviated SCN, that is known to contain the circadian clock. The term “brain slice preparation”, as used herein, is defined as a cut section of brain that is placed in a plastic chamber and kept fully functioning by providing it with ACSF (artificial cerebrospinal fluid) that has been warmed and infused with oxygen. Recordings of the spontaneous activity of neurons in the SCN brain slice preparation follow a 24-hour pattern of activity that marks the circadian rhythm. Following application of N-methyl-D-aspartate (NMDA), a compound that mediates the phase advances elicited by light in vivo, neurons in the SCN shift their pattern of firing in vitro to reflect a phase advance. Application of NPY blocks the phase advances elicited by NMDA; NPY Y5 antagonists of formula Ia and IIa block these effects of NPY.
Animals and tissue preparation. Male golden hamsters (LVG, Charles River, 40-60 days old) were housed under a light:dark schedule of 14 hours of constant light and 10 hours of constant dark, with food and water available ad libitum. Hamsters were administered an overdose of halothane anesthesia and decapitated during the subjective day. Hypothalamic slices (500 μm) containing the suprachiasmatic nucleus (SCN) were placed in a gas-fluid interface slice chamber (Medical Systems BSC with Haas top), continuously bathed (1 ml/min) in artificial cerebrospinal fluid (ACSF) containing 125.2 mM NaCl, 3.8 mM KCl, 1.2 mM KH2PO4, 1.8 mM CaCl2, 1 mM MgSO4, 24.8 mM NaHCO3, 10 mM glucose. ACSF (pH 7.4) was supplemented with an antibiotic (gentamicin, 50 mg/l) and a fungicide (amphotericin, 2 mg/l) and maintained at 34.5° C. Warm, humidified 95% oxygen:5% carbon dioxide was continuously provided to the slice preparation.
Electrophysiological studies. Extracellular single unit activity of SCN cells was detected with glass micropipette electrodes filled with ACSF, advanced through the slice using a hydraulic microdrive. The signal was further amplified and filtered, and was continuously monitored by an oscilloscope and audio monitor. Firing rate was analyzed using data acquisition software and a customized program for calculation of descriptive statistics. The term “firing rate”, as used herein, is defined as the rate at which the neurons produce an action potential during the period of recording and is indicative of their level of functioning. Firing rates in the range of 1 to 10 Hz are typical for SCN neurons. A number of experiments in each condition were recorded “blind” where the person recording data had no knowledge of the treatment. One slice was recorded from each animal. A total number of 42 slices was recorded.
Data analysis. Data were initially grouped into 1 h bins and an analysis of variance test was used to determine if any bins differed from the others. If the analysis of variance test indicated significant differences, data were smoothed using 1 h running means with a 15-minute lag. The time of the middle of the 1 h bin with the highest mean firing rate after processing by this smoother was taken as the time of peak firing rate for that slice. Phase advances of individual slices were measured relative to the average time of peak firing of control slices. Significant differences between groups (p<0.05) were determined by ANOVA followed by Bonferroni method (for all vs control comparisons). Means are reported±standard error. […]

[3] = Formula IIa 10 mg/kg s.c. + NPY via cannula + light
[4] = substance + light pulse, Formula IIa 10 mg/kg s.c. 30 minutes prior to light, NPY 0.2 μL via cannula
[5] = substance alone, no light, Formula IIa 10 mg/kg s.c., NPY 0.2 μL via cannula to SCN, N=7-12
[6] = NMDA 100 μM + NPY 2 ng/ml + antagonist 10 μM, 60 minute bath application
[7] = substance alone, bath application 3.5 hours before scheduled light, NPY 2 ng/ml, NMDA 100 μM, antagonist 10 μM 60 min, N=2-6

Compound | enhancement of the light-induced phase advance, % of the light alone experiment ([1]; Formula IIa 10 mg/kg s.c. 30 minutes prior to light, absence of NPY) [%] | reversal of the effects of NPY on light-induced phase advances, % of the light alone experiment [1, 3] | reversal of the effects of NPY on light-induced phase advances, % of the light alone experiment ([1]; Formula IIa 10 mg/kg s.c. + NPY via cannula + light, listed as formula IIa) [%] | Phase shift [1, 3] [h] | Phase shift ([1]; Formula IIa 10 mg/kg s.c. + NPY via cannula, no light) [h] | effect on the phase of wheel running activity ([1]; formula IIa 10 mg/kg s.c. + NPY, no light) | Phase shift [1, 4] [h] | effect on the phase of wheel running activity ([1]; substance alone, no light) | Phase shift [1, 5] [h] | Phase shift [2, 6] [h] | reversal of the effect of NPY on NMDA-induced phase advances, % of the NMDA alone experiment [2] | reversal of the effect of NPY on NMDA-induced phase advances, % of the NMDA alone experiment ([2]; listed as formula IIa) [%] | effect on the phase of neuronal firing compared to the control experiment ([2]; substance alone) | Phase shift [2, 7] | reversal of the effect of NPY on NMDA-induced phase advances, % of the NMDA alone experiment ([2]; listed as formula Ia) [%] | blockade of the phase advance compared to the light alone experiment ([1]; NPY via cannula + light) | blockade of the NMDA-induced phase advance by NPY ([2]; NMDA 100 μM + NPY 2 ng/ml) | Phase shift ([2]; NMDA 100 μM + NPY 2 ng/ml) [h]
O=C1OC2(CCN(c3nc4cc(C(F)(F)F)ccc4[nH]3)CC2)c2ccccc21 [Formula IIa] | 160 | about 90% | 89 | 1.18 ± 0.27 | -0.20 ± 0.07 | no effect | 2.11 ± 0.16 | no effect | -0.12 ± 0.04 | 2.73 ± 0.16 | about 95% | 95 | no effect | 0.07 ± 0.07 h | – | – | – | –
CN[C@H](CC(=O)O)C(=O)O [NMDA, N-methyl-D-aspartate, reference compound] | – | – | – | – | – | – | – | – | – | – | – | – | – | 2.89 h and 2.89 ± 0.08 h | – | – | – | –
O=C1OC2(CCN(C(=O)Nc3ccc(C(F)(F)F)cn3)CC2)c2ccccc21 [Formula Ia] | – | – | – | – | – | – | – | – | – | 2.03 ± 0.88 | about 70% | – | no effect | 0.32 ± 0.35 h | 70 | – | – | –
Neuropeptide Y [NPY, reference compound] | – | – | – | – | – | – | -0.03 ± 0.20 | no effect | -0.04 ± 0.11 | – | – | – | no effect | -0.18 ± 0.17 h | – | complete blockade | complete blockade | -0.07 ± 0.09
